# “And” between values parts separate entries of the source, which are not always exact repeats. Equal values may be shown once.
# What was measured:
# [1] = Plasma lipids after a single oral dose of DA-DKP in human volunteers; type: in vivo; conditions: 100 mg oral; all three subjects
# Experimental: (§1) • 1. Two human male volunteers and one human volunteer (respectively) were administered 100 mg of DA-DKP (packed in a gelatin capsule) orally on an empty stomach after overnight fasting. The DA-DKP was composed of L-aspartic acid and L-alanine. • 2. Venous blood samples were drawn into heparinized and EDTA vacutainers at baseline (time zero), 2 hours (hrs), 4 hrs and 24 hrs after the ingestion of the DA-DKP. • 3. Blood samples were analyzed for a complete blood count (CBC) and a biochemical survey, including plasma lipids at baseline and at the 24 hrs time points. Plasma was also used for measurement of the level of DA-DKP by a liquid chromatography mass spectrometer (LCMS) method (protocol and results given below). • 4. Peripheral blood monocytes (PBMC) from heparinized bloods were extracted by Ficoll gradient method and analyzed by flow cytometry. The protocol and results are given below. • 5. Urines were collected for 24 hrs and volumes were recorded. DA-DKP levels were also measured by LCMS. • 6. Saliva at 2 hrs was tested for the presence of DA-DKP by LCMS. Summary of Results: • 1. CBC's were unchanged and remained within the normal range. • 2. […] Urine levels of DA-DKP were calculated (see Table 2). • 6. Saliva DA-DKP levels were calculated (see Table 2) • 7. […]
# [2] = DA-DKP LCMS measurement in plasma, urine and saliva after oral dose; type: in vivo, human; conditions: 100 mg oral
# Experimental: • 1. Two human male volunteers and one human volunteer (respectively) were administered 100 mg of DA-DKP (packed in a gelatin capsule) orally on an empty stomach after overnight fasting. The DA-DKP was composed of L-aspartic acid and L-alanine. • 2. […] Blood samples were analyzed for a complete blood count (CBC) and a biochemical survey, including plasma lipids at baseline and at the 24 hrs time points. Plasma was also used for measurement of the level of DA-DKP by a liquid chromatography mass spectrometer (LCMS) method (protocol and results given below). • 4. Peripheral blood monocytes (PBMC) from heparinized bloods were extracted by Ficoll gradient method and analyzed by flow cytometry. The protocol and results are given below. • 5. Urines were collected for 24 hrs and volumes were recorded. DA-DKP levels were also measured by LCMS. • 6. Saliva at 2 hrs was tested for the presence of DA-DKP by LCMS. Summary of Results: • 1. CBC's were unchanged and remained within the normal range. • 2. BUN, glucose electrolytes, creatinine, liver function tests, total protein, albumin and calcium were unchanged and within the normal range at 24 hours post ingestion. • 3. […] Urine levels of DA-DKP were calculated (see Table 2). • 6. Saliva DA-DKP levels were calculated (see Table 2) • 7. PBMC results are described below. • 8. Effects noticed by subjects: • a. Significant loss of appetite (lasting 8-9 hrs)—3/3 subjects • b. Slight dry mouth—2/3 subjects • c. Thick saliva—1/3 subjects • d. […] Laxative effect—1/3 subjects • f. Slight drowsiness—1/3 subjects * Analgesic Effect:
# Plasma or urines were passed through a <5 Kd filter and 50 μl of the flow-through fractions were injected into high performance liquid chromatography (HPLC, 2975 system, Waters, Mass.) coupled to a mass spectrometer (LCT-TOF, Micromass, UK) and DA-DKP was quantified using a strong anion exchange column (Spherisorb, S5 SAX 250 mm×4.0 mm, Waters) and a ternary mobile phase consisting of water, methanol and 200 mM Ammonium Formate (Sigma Aldrich, Mo.), pH 5.4, at 0.5 ml/min flow rate in a gradient as shown in Table A.
# The output of the HPLC was split 1:20 (v:v) and injected into the mass spectrometer using negative electrospray ionization (−ESI MS) with a scan range of 80 to 1000 m/z, cone voltage of 30 eV, source temperature of 100° C., and gas temperature of 300° C. DA-DKP was measured by monitoring the mass 185 in time, which corresponds to DA-DKP minus a single proton (—H+). DA-DKP elutes at 10.4 minutes and was quantified by integrating the area under the curve. The area was compared to a standard curve derived from synthetic DA-DKP standards (DMI Synthesis, Newport Wales, UK) of known concentrations (2000 ng/ml, 1000 ng/ml, 400 ng/ml, 200 ng/ml, 100 ng/ml, 20 ng/ml).
# [3] = Complete blood count and biochemical survey after oral DA-DKP; type: in vivo; conditions: 100 mg oral, human
# Experimental: as §1
# [4] = Effects noticed by subjects after oral DA-DKP (appetite, analgesia, side effects); type: in vivo, human; conditions: 100 mg oral
# Experimental: • 1. Two human male volunteers and one human volunteer (respectively) were administered 100 mg of DA-DKP (packed in a gelatin capsule) orally on an empty stomach after overnight fasting. The DA-DKP was composed of L-aspartic acid and L-alanine. • 2. Venous blood samples were drawn into heparinized and EDTA vacutainers at baseline (time zero), 2 hours (hrs), 4 hrs and 24 hrs after the ingestion of the DA-DKP. • 3. Blood samples were analyzed for a complete blood count (CBC) and a biochemical survey, including plasma lipids at baseline and at the 24 hrs time points. Plasma was also used for measurement of the level of DA-DKP by a liquid chromatography mass spectrometer (LCMS) method (protocol and results given below). • 4. Peripheral blood monocytes (PBMC) from heparinized bloods were extracted by Ficoll gradient method and analyzed by flow cytometry. The protocol and results are given below. • 5. Urines were collected for 24 hrs and volumes were recorded. DA-DKP levels were also measured by LCMS. • 6. Saliva at 2 hrs was tested for the presence of DA-DKP by LCMS. Summary of Results: • 1. CBC's were unchanged and remained within the normal range. • 2. BUN, glucose electrolytes, creatinine, liver function tests, total protein, albumin and calcium were unchanged and within the normal range at 24 hours post ingestion. • 3. […] Urine levels of DA-DKP were calculated (see Table 2). • 6. Saliva DA-DKP levels were calculated (see Table 2) • 7. PBMC results are described below. • 8. Effects noticed by subjects: • a. Significant loss of appetite (lasting 8-9 hrs)—3/3 subjects • b. Slight dry mouth—2/3 subjects • c. Thick saliva—1/3 subjects • d. […] Laxative effect—1/3 subjects • f. Slight drowsiness—1/3 subjects * Analgesic Effect:
# One subject had left knee and left Sacroiliac (SI) joint pain. […] The pain originates probably from inflammation caused by sarcoidosis and was 6-7 on a scale of 1-10 before treatment. The effect lasted for about 4 hrs.
# [5] = tested on: Peripheral blood mononuclear cells (PBMC); experiment: PBMC CD69 expression by flow cytometry after OKT3 stimulation (ex vivo); type: cell-based, human; conditions: single individual
# Experimental: as §1, with “Plasma was also used for measurement of the level of DA-DKP by a liquid chromatography mass spectrometer (LCMS) method (protocol and results given below). • 4.” left out, “The protocol and results are given below. • 5.” left out, “6.” for “6. Saliva at 2 hrs was tested for the presence of DA-DKP by LCMS. Summary of Results: • 1. CBC's were unchanged and remained within the normal range. • 2.”
# Peripheral blood mononuclear cells (PBMC) were isolated from peripheral blood, and 2,000,000 cells were cultured in DMEM medium with 10% human AB serum plus 2% (final concentration) of anti-T-cell receptor complex antibody OKT3. […] After culture overnight at 37° C. cells were washed, incubated with an anti-CD69 antibody, fixed and analyzed on the flow cytometer for CD69 expression. […]
# [6] = tested on: Subcutaneous preadipocytes; experiment: Adipogenesis assay (AdipoRed fluorescence); type: cell-based; conditions: 14 days differentiation
# Experimental: Subcutaneous preadipocytes (Zen-Bio, Inc., Research Triangle Park, N.C.) were cultured to near confluency at 5% CO2, 37° C. in Preadipocyte Growth Medium-2 (PGM-2, Lonza, Walkersville, Md.) containing 10% fetal bovine serum (FBS), L-glutamine, and GA-1000. Cells were harvested using trypsin/EDTA (Lonza) and initially seeded in 96-well black/clear bottom plates at 3,000 cells/well. Cells were allowed to form a confluent monolayer for 7 days in culture.
# 7-day old medium was aspirated and cells were dosed with DA-DKP (doses used in PGM-2 media: 25, 50, or 100 μM) in triplicate on two plates. The DA-DKP was composed of L-aspartic acid and L-alanine. […]
# After the 14 day incubation period, culture media were collected from all wells and stored at −20° C. for IL-6 ELISA (see below). […] After 10 minutes, fluorescence was measured on a plate reader set at λEX=485 nm and λEM=572 nm.
# The triplicate fluorescent values for each treatment were averaged and subtracted from the average media only (i.e. no cells) wells. For the differentiated wells, a % change was calculated by subtracting the average fluorescent value for the differentiated cells from the undifferentiated cells for each treatment group. […] All data are expressed as ±SD. […]
# interleukin-6 (IL-6) = experiment: IL-6 ELISA of preadipocyte culture media; type: cell-based; conditions: after the 2 week differentiation period (data not shown)
# Experimental: 7-day old medium was aspirated and cells were dosed with DA-DKP (doses used in PGM-2 media: 25, 50, or 100 μM) in triplicate on two plates. The DA-DKP was composed of L-aspartic acid and L-alanine. PGM-2 differentiation media (containing insulin, dexamethasone, indomethacin, and isobutyl-methylxanthine; Lonza) was added to one plate, while PGM-2 media was added to the other. Plates were then placed back in culture and allowed to incubate for 14 days.
# After the 14 day incubation period, culture media were collected from all wells and stored at −20° C. for IL-6 ELISA (see below). Wells were rinsed once with 1×PBS (Lonza). 50 μL M-PER lysis solution (Thermo Scientific, Rockford, Ill.) were added to all wells, and complete cell lysis was achieved by mixing each well. 150 μL 1×PBS was added to each well. 5 μL AdipoRed™ Reagent (Lonza) was added to each well, and the plate was mixed immediately by gentle tapping. After 10 minutes, fluorescence was measured on a plate reader set at λEX=485 nm and λEM=572 nm.
# Enzyme-linked immunosorbent assay (ELISA) matched-pair antibodies for interleukin-6 (IL-6) were obtained from Thermo Scientific (Rockford, Ill.). IL-6 was analyzed by ELISA and performed according to the manufacturer's instructions. A 1:10 dilution of each supernatant was measured in duplicate using an IL-6 standard (Thermo Scientific, Rockford, Ill.).
# [7] = tested on: vascular endothelial barrier; conditions: provisional application No. 61/380,404; cited from earlier work
# platelets = conditions: U.S. Pat. Nos. 6,555,543 and 7,732,403; cited from earlier work
# T-cells = conditions: U.S. Pat. Nos. 6,555,543 and 7,732,403; cited from earlier work
# MAPK = conditions: reference 12; cited from earlier work
# endothelial cells = conditions: provisional application No. 61/380,404; cited from earlier work
smiles,measurement,setting,value
C[C@@H]1NC(=O)[C@H](CC(=O)O)NC1=O [DA-DKP],Lipids at 24 hours post ingestion,[1],decreased across the board
same,DA-DKP plasma level at 24 hrs post ingestion,[2]; human,not detectable
same,Time of peak DA-DKP plasma level,[2]; human,about 2 hrs
same,"DA-DKP in plasma, 15 min","[2]; 15 min, per human subject",0.14 µM
same,"DA-DKP in plasma, 30 min","[2]; 30 min, per human subject",0.35 µM
same,"DA-DKP in plasma, 60 min","[2]; 60 min, per human subject",0.84 µM
same,"DA-DKP in plasma, 240 min","[2]; 240 min, per human subject",0.25 µM and 0.34 µM
same,"DA-DKP in plasma, 360 min","[2]; 360 min, per human subject",0.61 µM
same,DA-DKP in Saliva 2 hrs,"[2]; saliva at 2 hrs, per human subject",0.22 µM and 0.29 µM
same,DA-DKP in Urine 24 hrs,"[2]; urine collected for 24 hrs, per human subject",4.25 µM and 6.98 µM and 3.52 µM
same,"BUN, glucose electrolytes, creatinine, liver function tests, total protein, albumin and calcium","[3]; 24 hours post ingestion, within the normal range",unchanged
same,CBC,[3]; remained within the normal range,unchanged
same,Duration of loss of appetite,[4]; human,8 to 9 h
same,"Laxative effect, subjects affected",[4]; human,1/3
same,"Significant loss of appetite, subjects affected",[4]; human,3/3
same,"Slight drowsiness, subjects affected",[4]; human,1/3
same,"Slight dry mouth, subjects affected",[4]; human,2/3
same,"Thick saliva, subjects affected",[4]; human,1/3
same,"Analgesic effect, subjects affected","[4]; human, others did not have pain",1/3
same,Duration of analgesic effect,[4]; one subject,about 4 hrs
same,Reduction of SI joint pain,[4]; one subject,about 50%
same,Time to analgesic effect after ingestion,[4]; one subject,1 to 2 h
same,Left knee pain,"[4]; one subject, pain 6-7 on a scale of 1-10 before treatment",resolved completely
same,Time of greatest effect on CD69 expression,[5]; after DA-DKP ingestion,4 h
same,CD69 expression on CD45RA and CD45RO cells,"[5]; after ingestion of DA-DKP vs time zero, OKT3 stimulation",decreased
same,Effect on adipogenesis,[6]; 25 μM,significant decrease
same,Effect on adipogenesis,[6]; 100 μM,increase
same,Effect on IL-6 levels,interleukin-6 (IL-6),no significant effect
same,Vascular hyperpermeability,[7],inhibit
same,Aggregation of platelets,platelets,inhibit
same,Activation of T-cells,T-cells,inhibit
same,MAPK activity in T-lymphocytes,MAPK,inhibitory effect
same,Cytoskeletal network in endothelial cells,endothelial cells,stabilize

# Reference: patent US9034878B2, “Treatment of diseases” (Ampio Pharmaceuticals, Inc., priority 2010, dated 2015)
